Reference: US20230060873A1, “COMPOUNDS AND METHODS FOR FORMING ION CHANNELS IN BIOLOGICAL MEMBRANES” (Washington University, priority 2021, published 2023)

Test: Single-channel patch clamp recordings, inside-out, on giant multilamellar vesicles
Type: biochemical
Conditions: 10 μM; for single channel conductance with different ions: Na+ and NMDG+ compared with K+; for single channel activity with different ions: NaCl or NMDG-Cl; for NPO / Translocation rate: 100 mV
Protocol: The liposome preparation was based on protocols employed by Jiang et al., Activation of the archaeal ion channel MthK is exquisitely regulated by temperature, Elife 2020, 9, to reconstitute bacterial ion channels in proteoliposomes (giant multilamellar vesicles; GMLV). The method is adapted to produce plain liposomes. A total of 25 mg of asolectin from soybean (Avanti) was dissolved in 1 mL of chloroform, dried under argon, and kept overnight under vacuum. The dried lipids were resuspended using bath sonication in a resuspension solution (250 mM KCl, 30 mM HEPES, 0.1 mM CaCl2, pH adjusted at 7.6 with KOH) to a final concentration of 15 mg/mL and stored in 30 μL aliquots at −80° C. Aliquots were thawed and placed on a clean glass slide and dried in a desiccator under vacuum at room temperature. The lipids were then rehydrated with 50 μL resuspension solution for more than 2 h to yield the GMLVs.
Direct detection of electrophysiological activity in biological membranes is the gold standard for any putative ion channel. The 6-O-10 and 6-A-10 compounds were tested for ion channel activity by using the patch clamp technique in the inside-out configuration on giant multilamellar vesicles (GMLV) of asolectin.
Single-channel recordings were obtained by patch-clamping GMLV. After seal formation, patches were excised to obtain the inside-out configuration, and then the pipette solution and the bath solution were assumed to be “external” and “internal” solutions, respectively. Pipettes of borosilicate capillary glass 2-000-100 (Drummond Scientific Company) were pulled in a horizontal pipette puller P-97 (Sutter Instrument). Pipette resistance was 5-10 MΩ in any of the solutions tested. Data were acquired with an Axopatch 200A (Axon Instruments) amplifier. Current signals were sampled with a 16-bit A/D converter Axon Digi-data 1550B (Axon Instruments) at a sampling rate of 100 kHz and low-pass filtered at 10 kHz. Data was acquired using Clampex 10.7 (Molecular Devices) acquisition software and analysed with Clampfit 10.7 software (Axon Instruments) and Origin. The temperature in the room was approximately 21° C.
For gap-free experiments, symmetrical (same solution in pipette and bath) KCl solution (200 mM KCl, 30 mM HEPES, pH adjusted to 7.4 with KOH), NaCl solution (200 mM NaCl, 30 mM HEPES, pH adjusted to 7.4 with NaOH) or NMDG-Cl solution (200 mM NMDG, 30 mM HEPES, pH adjusted to 7.4 with HCl) were used for both the internal and external solutions. All the traces were recorded at 100 mV for 5 minutes.
FIGS. 12-14 show single channel activity elicited by 10 μM 6-O-10 in the presence of symmetrical KCl, NaCl and NMDG-Cl solutions, respectively. FIGS. 15-17 show single channel activity elicited by 10 μM 6-A-10 in the presence of symmetrical KCl, NaCl and NMDG-Cl solutions, respectively. Histograms for a total recording time of 900 s are included below every record.
Ion channel activity was measured in the presence of symmetrical 200 mM KCl, NaCl or NMDG-Cl at a concentration of 10 μM for each compound. Three different records of 300 s each were analyzed for every condition shown in (FIGS. 12-17).
To estimate the relative permeabilities of various ions, the product of number of channels (N) and open probability (Po) and the conductance from the amplitude histograms must be taken into consideration (Table 1). Unlike measurements from single ion channels, the present analysis is not constrained to recordings from patches that contain single functional channels. Thus, the possibility that the supramolecular assembly of synthetic channels is dynamic, and that new channels form during recordings with different oligomerization states cannot be ruled out. The only parameter that can be controlled is the concentration of the compounds in solution. All measurements reported here were obtained at 10 μM solution concentration. […]

| Compound | single channel conductance with different ions | efficiency of K+ permeation relative to NMDG+ (from translocation rates) [fold] | efficiency of K+ permeation relative to Na+ (from translocation rates) [fold] | single channel activity with different ions (symmetrical 200 mM KCl) | NPO (symmetrical 200 mM KCl) | Translocation rate (symmetrical 200 mM KCl) | NPO (symmetrical 200 mM NMDG-Cl) | Translocation rate (symmetrical 200 mM NMDG-Cl) | NPO (symmetrical 200 mM NaCl) | Translocation rate (symmetrical 200 mM NaCl) | efficiency of K+ transport compared to 6-O-10 |
| --- | --- | --- | --- | --- | --- | --- | --- | --- | --- | --- | --- |
| CCCCCCCCCC(=O)c1ccc2c(c1)OCCOCCOCCOCCOCCO2 [Compound 6-O-10, 1-(2,3,5,6,8,9,11,12,14,15-decahydrobenzo[b][1,4,7,10,13,16]hexaoxacyclooctadecin-18-yl)decan-1-one] | only half that observed in the presence of K^+ | 7 | 3.5 | highest in the presence of K^+ and Na^+ as compared to NMDG^+ | 0.58 ± 0.16 | 43.4 ± 5.8 10^6/sec | 0.25 ± 0.13 | 7.1 ± 3.4 10^6/sec | 0.56 ± 0.10 | 11.3 ± 1.1 10^6/sec | – |
| CCCCCCCCCCc1ccc2c(c1)OCCOCCOCCOCCOCCO2 [Compound 6-A-10, 18-decyl-2,3,5,6,8,9,11,12,14,15-decahydrobenzo[b][1,4,7,10,13,16]hexaoxacyclooctadecine] | very similar with the different ions | – | – | does not vary significantly | 0.18 ± 0.02 | 3.2 ± 0.3 10^6/sec | 0.19 ± 0.12 | 5.0 ± 1.9 10^6/sec | 0.16 ± 0.02 | 4.5 ± 0.7 10^6/sec | an order of magnitude less efficient |
